Laboratory results taken from US9481648B2, “Kinase inhibitors” (Respivert Limited, priority 2013, dated 2016).

Assays:
[1] = target: p38 MAPKα (MAPK14) (Homo sapiens (Human), UniProt Q16539); assay: p38 MAPKα enzyme inhibition (FRET, Z-LYTE; Method 2); format: biochemical
Description: (§1) The enzyme inhibitory activities of compounds disclosed herein are determined by FRET using synthetic peptides labelled with both donor and acceptor fluorophores (Z-LYTE, Invitrogen Ltd., Paisley, UK).
The inhibitory activities of test compounds against the p38 MAPKα isoform (MAPK14: Invitrogen) are evaluated indirectly by determining the level of activation\phosphorylation of the down-stream molecule, MAPKAP-K2. The p38 MAPKα protein (80 ng/mL, 2.5 μL) is mixed with the test compound (2.5 μL of either 4 μg/mL, 0.4 μg/mL, 0.04 μg/mL or 0.004 μg/mL) for 2 hr at RT. […] The mixture is incubated for 1 hr at RT. Development reagent (protease, 5 μL) is added for 1 hr prior to detection in a fluorescence microplate reader (Vanoskan® Flash, ThermoFisher Scientific).
(§2) In all cases, the site-specific protease cleaves non-phosphorylated peptide only and eliminates the FRET signal. Phosphorylation levels of each reaction are calculated using the ratio of coumarin emission (donor) over fluorescein emission (acceptor), for which high ratios indicate high phosphorylation and low ratios indicate low phosphorylation levels.

[2] = target: c-Src (Homo sapiens (Human), UniProt P12931); assay: c-Src enzyme inhibition (FRET, Z-LYTE); format: biochemical
Description: as §1
(§3) The relevant enzyme (3000 ng/mL or 2000 ng/mL respectively, 2.5 μL) is incubated with the test compound (either 1 μg/mL, 0.1 μg/mL, 0.01 μg/mL, or 0.001 μg/mL, 2.5 μL each) for 2 hr at RT. The FRET peptides (8 μM, 2.5 μL), and appropriate ATP solutions (2.5 μL, 800 μM for c-Src, and 60 μM ATP for Syk) are then added to the enzymes/compound mixtures and the mixture incubated for 1 hr. Development reagent (protease, 5 μL) is added for 1 hr prior to detection in a fluorescence microplate reader (Varioskan® Flash, ThermoFisher Scientific).
as §2

[3] = target: Syk (Homo sapiens (Human), UniProt P43405); assay: Syk enzyme inhibition (FRET, Z-LYTE); format: biochemical
Description: as §1, §3, §2

[4] = target: GSK 3α (Homo sapiens (Human), UniProt P49840); assay: GSK 3α enzyme inhibition (FRET, Z-LYTE; Method 2); format: biochemical; settings: read-out: IC50 Values for Enzyme Inhibition GSK3α
Method in brief: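 Z-LYTE FRET assay: GSK3-α (500 ng/mL stock) preincubated 105 min at RT with compound at 10, 1, 0.1 or 0.01 μg/mL stock. FRET peptide (8 μM stock) and ATP (40 μM stock) were then added for 1 h, followed by protease development for 1 h. Phosphorylation was read as coumarin/fluorescein emission ratio.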

[5] = test system: β-catenin in d-U937 cells; assay: Accumulation of β catenin in d-U937 cells (assay m); format: cell-based, human
Description: U937 cells, a human monocytic cell line, are differentiated into macrophage-type cells by incubation with PMA (100 ng/mL) for between 48 to 72 hr. The cells are then incubated with either final concentrations of test compound or vehicle for 18 hr. The induction of β-catenin by the test compounds is stopped by replacing the media with 4% formaldehyde solution. Endogenous […] is neutralised by incubating with quenching buffer (100 μL, 0.1% sodium azide, 1% H2O2 in PBS with 0.05% Tween-20) for 20 min. The cells are washed with washing buffer (200 μL; PBS containing 0.05% Tween-20) and incubated with blocking solution (200 μL; 5% milk in PBS) for 1 hr, re-washed with washing buffer (200 μL) and then incubated overnight with anti-β-catenin antibody solution (50 μL) in 1% BSA/PBS (BD, Oxford, UK).
After washing with washing buffer (3×200 μL; PBS containing 0.05% Tween-20), cells are incubated with a HRP-conjugated secondary antibody solution (100 μL) in 1% BSA/PBS (Dako, Cambridge, UK) and the resultant signal is determined colourimetrically (OD: 450 nm with a reference wavelength of 655 nm) using TMB substrate (50 μL; R&D Systems, Abingdon, UK). This reaction is stopped by addition of 1N H2SO4 solution (50 μL). Cells are then washed with washing buffer and 2% crystal violet solution (50 μL) is applied for 30 min. After washing with washing buffer (3×200 μL), 1% SDS (100 μL) is added to each well and the plates are shaken lightly for 1 hr prior to measuring the absorbance at 595 nm (Varioskan® Flash, Thermo-Fisher Scientific).
The measured OD450-655 readings are corrected for cell number by dividing the OD450-655 by the OD595 readings.

Sequence of c-Src (P12931 whole entry, looked up): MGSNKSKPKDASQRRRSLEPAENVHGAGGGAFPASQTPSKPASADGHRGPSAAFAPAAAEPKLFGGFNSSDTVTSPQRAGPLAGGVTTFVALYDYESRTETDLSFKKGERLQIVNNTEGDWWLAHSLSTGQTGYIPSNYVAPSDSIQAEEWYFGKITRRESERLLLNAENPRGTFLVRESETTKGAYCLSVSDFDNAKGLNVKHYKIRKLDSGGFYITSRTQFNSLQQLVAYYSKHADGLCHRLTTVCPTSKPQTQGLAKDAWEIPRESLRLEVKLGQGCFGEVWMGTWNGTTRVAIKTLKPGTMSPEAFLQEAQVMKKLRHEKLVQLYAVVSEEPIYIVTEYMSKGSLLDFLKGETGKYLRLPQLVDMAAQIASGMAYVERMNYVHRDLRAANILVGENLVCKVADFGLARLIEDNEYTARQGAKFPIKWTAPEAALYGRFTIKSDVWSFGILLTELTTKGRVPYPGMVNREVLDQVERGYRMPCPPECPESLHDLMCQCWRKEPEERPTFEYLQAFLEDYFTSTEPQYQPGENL
Sequence of p38 MAPKα (MAPK14) (Q16539 whole entry): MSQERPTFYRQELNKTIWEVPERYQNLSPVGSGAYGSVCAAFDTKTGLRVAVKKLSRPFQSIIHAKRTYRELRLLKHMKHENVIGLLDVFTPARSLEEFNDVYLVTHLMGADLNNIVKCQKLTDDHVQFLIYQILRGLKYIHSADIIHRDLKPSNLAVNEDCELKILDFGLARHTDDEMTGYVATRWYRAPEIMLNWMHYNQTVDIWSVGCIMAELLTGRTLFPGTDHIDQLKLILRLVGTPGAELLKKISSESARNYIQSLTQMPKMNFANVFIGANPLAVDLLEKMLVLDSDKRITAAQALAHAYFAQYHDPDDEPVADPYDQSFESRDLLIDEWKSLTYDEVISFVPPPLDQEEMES
Sequence of GSK 3α (P49840 whole entry): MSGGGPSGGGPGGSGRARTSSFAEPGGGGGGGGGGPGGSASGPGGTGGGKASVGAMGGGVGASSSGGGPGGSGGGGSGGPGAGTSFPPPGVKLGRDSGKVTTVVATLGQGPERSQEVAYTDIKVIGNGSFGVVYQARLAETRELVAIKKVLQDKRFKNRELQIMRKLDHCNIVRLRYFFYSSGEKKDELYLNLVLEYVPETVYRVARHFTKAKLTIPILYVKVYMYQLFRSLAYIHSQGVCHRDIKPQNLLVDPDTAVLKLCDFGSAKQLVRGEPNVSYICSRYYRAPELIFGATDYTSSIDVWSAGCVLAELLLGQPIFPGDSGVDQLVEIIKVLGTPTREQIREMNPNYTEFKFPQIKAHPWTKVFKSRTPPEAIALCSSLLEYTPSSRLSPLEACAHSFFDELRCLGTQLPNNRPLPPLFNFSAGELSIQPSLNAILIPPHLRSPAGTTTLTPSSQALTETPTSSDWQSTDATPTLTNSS

SMILES | IC50 [1] [nM] | IC50 [2] [nM] | IC50 [3] [nM] | IC50 [4] [nM] | % β-catenin induction ([5]; test compound 1 μg/mL) [%] | % β-catenin induction ([5]; test compound 5 μg/mL) [%] | % β-catenin induction ([5]; test compound 10 μg/mL) [%]
COCCOCCOCCOc1cc(Nc2cc(Oc3ccc(NC(=O)Nc4cc(C(C)(C)C)cc(NS(C)(=O)=O)c4OC)c4ccccc34)ccn2)cc(OC)c1 [Example 11, N-(5-(tert-Butyl)-2-methoxy-3-(3-(4-((2-((3-methoxy-5-(2-(2-(2-methoxyethoxy)ethoxy)-ethoxy)phenyl)amino)pyridin-4-yl)oxy)naphthalen-1-yl)ureido)phenyl)-methanesulfonamide] | 124 | 21 | 193 | 12200 | −8 | −5 | −2
C#Cc1cc(Nc2nccc(Oc3ccc(NC(=O)Nc4cc(C(C)(C)C)cc(NS(C)(=O)=O)c4OC)c4ccccc34)n2)cc(C(=O)N[C@@H](C)CN2CCOCC2)c1 [Example 57, (S)-3-((4-((4-(3-(5-(tert-butyl)-2-methoxy-3-(methylsulfonamido)phenyl)ureido)-naphthalen-1-yl)oxy)pyrimidin-2-yl)amino)-5-ethynyl-N-(1-morpholinopropan-2-yl)benzamide] | 286 | 48 | 706 | 1120 | 4 | 6 | 11
COc1cc(Nc2nccc(Oc3ccc(NC(=O)Nc4cc(C(C)(C)C)cc(NS(C)(=O)=O)c4OC)c4ccccc34)n2)cc(C(=O)NCCN2CCOCC2)c1 [Example 6, 3-((4-((4-(3-(5(tert-Butyl)-2-methoxy-3-(methylsulfonamido)phenyl)ureido)naphthaen-1-yl)oxy)pyrimidin-2-yl)amino)-5-methox-N-(2-morpholinoethyl)benzamide] | 34 | 11 | 421 | 541 | 7 | 20 | 11
COCCOCCOCCOCCOCCOCCOCCOc1cc(Nc2nccc(Oc3ccc(NC(=O)Nc4cc(C(C)(C)C)cc(NS(C)(=O)=O)c4OC)c4ccccc34)n2)cc(OC)c1 [Example 14, N-(3-(3-(4-((2-((3-(2,5,8,11,14,17,20-Heotaoxadocosan-22-yloxy)-5-methoxyphenyl)amino)-pyrimidin-4-yl)oxy)naphthalen-1-yl)ureido)-5-(tert-butyl)-2-methoxyphenyl)-methanesulfonamide] | 49 | 11 | 106 | 1010 | 0 | 16 | 14
C#Cc1cc(Nc2cc(Oc3ccc(NC(=O)Nc4cc(C(C)(C)C)cc(NS(C)(=O)=O)c4OC)c4ccccc34)ccn2)cc(C(=O)NCCOCCOC)c1 [Example 52] | 277 | 100 | 1260 | 12600 | 2 | 9 | 1
C#Cc1cc(Nc2cc(Oc3ccc(NC(=O)Nc4cc(C(C)(C)C)cc(NS(C)(=O)=O)c4OC)c4ccccc34)ccn2)cc(C(=O)N[C@H](C)COCCOCCOC)c1 [Example 68, (R)-3-((4-((4-(3-(5-(tert-Butyl)-2-methoxy-3-(methylsulfonamido)phenyl)ureido)-naphthalen-1-yl)oxy)pyridin-2-yl)amino)-5-ethynyl-N-(1-(2-(2-methoxyethoxy)ethoxy)-propan-2-yl)benzamide] | 209 | 70 | 1170 | 11700 | 2 | 2 | −1
C#Cc1cc(Nc2cc(Oc3ccc(NC(=O)Nc4cc(C(C)(C)C)cc(C(N)=O)c4OC)c4ccccc34)ccn2)cc(C(=O)NCCOCCOCCOC)c1 [Example 53, 3-((4-((4-(3-(5-(tert-Butyl)-3-carbamoyl-2-methoxyphenyl)ureido)naphthalen-1-yl)oxy)pyridin-2-yl)amino)-5-ethynyl-N-(2-(2-(2-methoxyethoxy)ethoxy)ethyl)benzamide] | 132 | 46 | 1270 | 8780 | −1 | 1 | 2
COCCOCCOCCOc1cc(Nc2nccc(Oc3ccc(NC(=O)Nc4cc(C(C)(C)C)cc(NS(C)(=O)=O)c4OC)c(Cl)c3Cl)n2)cc(OC)c1 [Example 10, N-(5-(tert-Butyl)-3-(3-(2,3-dichloro-4-((2-((3-methoxy-5-(2-(2-(2-methoxyethoxy)ethoxy)-ethoxy)phenyl)amino)pyrimidin-4-yl)oxy)phenyl)ureido)-2-methoxyphenyl)-methanesulfonamide] | 551 | 18 | 63 | 1310 | 12 | 42 | 39
C#Cc1cc(Nc2cc(Oc3ccc(NC(=O)Nc4cc(C(C)(C)C)cc(C(N)=O)c4OC)c4ccccc34)ccn2)cc(C(=O)NCCN2CCOCC2)c1 [Example 48, 3-((4-((4-(3-(5-(tert-Butyl)-3-carbamoyl-2-methoxyphenyl)ureido)naphthalen-1-yl)oxy)pyridin-2-yl)amino)-5-ethynyl-N-(2-morpholinoethyl)benzamide] | 229 | 45 | 490 | 5030 | −2 | −4 | −3
COCCOCCOCCOc1cc(Nc2nccc(Oc3ccc(NC(=O)Nc4cc(C(C)(C)C)cc(NS(=O)(=O)N5CCOCC5)c4OC)c4ccccc34)n2)cc(OC)c1 [83(b), N-(5-(tert-butyl)-2-methoxy-3-(3-(4-((2-((3-methoxy-5-(2-(2-(2-methoxyethoxy)ethoxy)-ethoxy)phenyl)amino)pyrimidin-4-yl)oxy)naphthalen-1-yl)ureido)phenyl)morpholine-4-sulfonamide] | 246 | 48 | 802 | 9150 | −6 | −9 | −6
CNC(=O)c1cc(C(C)(C)C)cc(NC(=O)Nc2ccc(Oc3ccnc(Nc4cc(OC)cc(OCCOCCOCCOC)c4)n3)c3ccccc23)c1OC [Example 13, 5-(tert-Butyl)-2-methoxy-3-(3-(4-((2-((3-methoxy-5-(2-(2-(2-methoxyethoxy)ethoxy)-ethoxy)phenyl)amino)pyrimidin-4-yl)oxy)naphthalen-1-yl)ureido)-N-methylbenzamide] | 28 | 9 | 35 | 824 | 7 | 34 | 26
COCCOCCOCCOc1cc(Nc2cc(Oc3ccc(NC(=O)Nc4cc(C(C)(C)C)cc(C(=O)NCCN(C)C)c4OC)c4ccccc34)ccn2)cc(OC)c1 [Example 76, 5-(tert-Butyl)-N-(2-(dimethylamino)ethyl)-2-methoxy-3-(3-(4-((2-((3-methoxy-5-(2-(2-(2-methoxyethoxy)ethoxy)ethoxy)phenyl)amino)pyridin-4-yl)oxy)naphthalen-1-yl)ureido)-benzamide] | 159 | 31 | 35 | 4790 | 2 | −1 | −13
